In patent US10143696B2, “Methods and compositions for decreasing gastric emptying” (priority 2015, dated 2018):
Where two headings read alike, the source gives them in different places.

Columns and labels:
Sprague-Dawley rats [1] = experiment: Gastric secretion volume and pH in fasted rats; format: in vivo, rat
Description: Gastric section and acidity was assessed by direct measurement in fasted animals (Melo et al. (2006). “Effect of acid secretion blockade on acute gastric mucosal lesions induced by Tityus serrulatus scorpion toxin in anaesthetized rats.” Toxicon 48(5): 543-549). Rats were fasted with free access to water for 24 hours on wire inserts without bedding. The next day, all rats were dosed orally with 0.5% MC (5 ml/kg) to remove any residual stomach contents and test compound or vehicle was administered. The animals were water deprived for 3 hours, anesthetized with isoflurane (5% in O2), and a laparotomy was conducted followed by tight ligation of the pylorus and cardia. After ligation, the stomach was removed and the rat was immediately euthanized by decapitation. The stomach was opened along the greater curvature and gastric fluid collected into Eppendorf tubes and centrifuged (5 min at 10×1000 g). pH was determined by pipetting gastric fluid directly onto an indicator stick (Whatman, Panpeha Plus, pH0-14). Data are represented as the mean volume and mean pH.
Male, Sprague-Dawley rats (weighing between 254-270 g each and 6 rats per test group) were fasted overnight (24 hours) on wire inserts without bedding. The rats were first orally dosed with 0.5% MC vehicle and then subcutaneously injected with 3 mg/kg or 10 mg/kg of Compound A with a 25% HPBCD vehicle or with a 25% HPBCD vehicle alone. The test animals were water deprived for 3 hours and then anesthetized with isoflurane and the pylorus and cardia were tightly ligated. The stomachs were then removed and the rats were euthanized. The gastric fluid was removed from the stomachs and collected in eppendorf tubes by cutting along the greatest curvature and spun in a centrifuge. Gastric secretion data were analyzed by a one-way ANOVA using a Bonferroni Multiple Comparison test, where *P<0.05 and **P<0.01 as compared to the appropriate vehicle. Data are represented as the means+S.E.M. PH data were analyzed by a one-way ANOVA using Dunnett's Multiple Comparison Test. Data are represented as the means+S.E.M.
This Example measured volume and pH of gastric secretion three hours post subcutaneous administration of 10 mg/kg of Compound A. The animals were water deprived during this time.

[2] = format: in vivo, cynomolgus monkeys
Description: Compound A (10-100 mg/kg) was administered orally to cynomolgus monkeys and blood specimens were collected prior to dose administration and at target time points of 0.5, 1, 3, 5, 8, and 24 hours post-dose administration. Blood was collected via the femoral vein into tubes containing tripotassium ethylene-diamine-tetraacetic acid (K3EDTA) as the anticoagulant. Whole blood was centrifuged to obtain plasma (9000×g for 10 minutes at 4° C.) which was transferred into labeled tubes and stored at −80° C. Plasma calibration standards, blanks, and study samples were processed by protein precipitation. To a 50 μL aliquot 150 μL of a 10 ng/mL solution of an internal standard and 150 μL of acetonitrile was added. The mixture was eluted using positive pressure and analyzed by liquid chromatography/mass spectrometry/mass spectrometry with m/z transition of 462-417. Compound A concentrations were calculated using area response ratios and a regression line constructed from the concentrations and peak area response ratios of the calibration standards. […]. The lower limit of quantification (LLOQ) for the plasma method is approximately 0.5 ng/mL and the upper limit of quantification (ULOQ) is approximately 1000 ng/mL extracted from plasma using a 50-μL aliquot of sample.
(§1) As such, a pharmacokinetic and observational study was conducted in cynomologous monkeys (FIG. 16). Plasma concentrations of Compound A were measured following a single oral dose of 10, 50 and 100 mg/kg up to 24 hours post-dosing (FIGS. 16A, B and C).

Sprague-Dawley rats [3] = experiment: Gastrointestinal transit, charcoal meal assay; format: in vivo, rat
Description: Small intestinal transit was measured based on a known method which involved the oral administration of a charcoal meal (Gmerek et al. (1986). “Independent central and peripheral mediation of morphine-induced inhibition of gastrointestinal transit in rats.” J Pharmacol Exp Ther 236(1): 8-13). Rats were fasted with free access to water for 18 hours. Test compound or vehicle was dosed prior to oral administration of a charcoal slurry containing activated charcoal, flour and water in a ratio of 1:2:7.5 (10 ml/kg orally). One hour after receiving the charcoal slurry, rats were euthanized by CO2 asphyxiation. The stomach and GI tract was excised from each animal. Whole stomach weight was recorded and the length of the small intestine (cm) (stomach to cecum) and the distance (cm) to the leading edge of charcoal was measured. Small intestinal transit data are expressed as a percentage of the distance traveled (i.e. % small intestinal transit=(distance charcoal traveled)/(total length of small intestine (stomach to cecum)×100). Pretreatment times were determined on the basis of pharmacokinetic data (not shown) and were as follows: Compound A, 60 minutes, Compound C, 60 minutes; carbamazepine, 60 minutes. Morphine was administered with a pretreatment time of 30 mins based on previous experience.

cynomolgus monkeys = format: in vivo
Description: Studies in cynomolgous monkeys were conducted by Battelle (Columbus, Ohio). Eleven monkeys, seven males and four females that had been previously received, quarantined, and acclimated and were naïve (females), or had not been used on other studies for a minimum of 6 months (males), were utilized. Prior to use on study, monkeys were acclimated to chair restraint for up to 2 hours. Chair restraint was used to facilitate dose administration and blood collection. Animals were individually housed in stainless steel cages. Monkeys were offered a certified diet twice daily and had access to fresh water ad libitum. The animals also were supplemented with fresh fruits and/or fresh vegetables. Monkeys were fasted overnight prior to dose administration.
Observations for moribundity and mortality were performed on all animals twice daily throughout the duration of the study. Cage-side clinical observations were recorded for all animals prior to dose administration and at the times of blood collection.
as §1

[4] = Compound A 10 mg/kg s.c. alone, three hours post administration (Example 17)
[5] = s.c. 3, 10 mg/kg, 25% HPBCD, 3 hours (Example 10)
[6] = individual monkey presenting the highest plasma levels
[7] = monkey, p.o. 100 mg/kg, animals affected/animals dosed, 100 mg/kg

C[C@H](Nc1cc(C(N)=O)nc(-c2ccc(Oc3ccc(OC(F)(F)F)cc3)cc2)n1)C(N)=O [Compound A]
pH of gastric secretion (Sprague-Dawley rats [1]; [4]): increase in gastric secretion and pH | volume of gastric secretion (Sprague-Dawley rats [1]; [4]): increase in gastric secretion and pH | volume and pH of gastric secretion (Sprague-Dawley rats [1]; lansoprazole 30 mg/kg p.o. 30 minutes prior to Compound A 10 mg/kg s.c. (Example 17)): not different from that achieved by Compound A alone | pH of gastric secretion (Sprague-Dawley rats [1]; [5]): remains unaffected | volume of gastric secretion (Sprague-Dawley rats [1]; [5]): increases with increasing dosages of Compound A | time up to which plasma concentration continued increasing ([2]; monkey, p.o. 10 mg/kg): 8 h | time up to which plasma concentration continued increasing ([2]; monkey, p.o. 50 mg/kg and 100 mg/kg): 24 h | plasma levels versus dose ([2]; monkey, single oral dose of 10, 50 and 100 mg/kg): increased with increasing dose in an approximately linear fashion | plasma concentrations ([2]; monkey, single oral dose of 10, 50 and 100 mg/kg, up to 24 hours): measurable at all doses | plasma level of the individual monkey presenting the highest plasma levels ([2]; p.o., at 24 hrs): over 3000 ng/ml | dosage level with significant effect on stomach weight (Sprague-Dawley rats [3]; charcoal meal assay): 100 mg/kg | stomach weight (Sprague-Dawley rats [3]; charcoal meal assay, vs vehicle treated animals): statistically significant increase in stomach weight | gastrointestinal transit (% small intestinal transit) (Sprague-Dawley rats [3]; charcoal meal, 60 minutes pretreatment, vs vehicle): No statistically significant decrease in gastrointestinal transit | food intake after 24 hrs post-dosing (cynomolgus monkeys; [6]): reduced food intake for at least two additional days post dosing | food intake and feces production up to 24 hrs post-dosing (cynomolgus monkeys; [6]): zero food intake and zero feces production | food consumption or feces production (cynomolgus monkeys; monkey, p.o. 10 mg/kg): no treatment related-effect was discernable | Clinical Observations (frequency): Diarrhea (cynomolgus monkeys; monkey, p.o. 10 mg/kg, animals affected/animals dosed, 10 mg/kg): 2 out of the 3 and (2/3) | Clinical Observations (frequency): Distended/Bloated Abdomen (cynomolgus monkeys; monkey, p.o. 50 mg/kg, animals affected/animals dosed, 50 mg/kg): 2 out of 4 and Abdomen (2/4) | Clinical Observations (frequency): Distended/Bloated Abdomen (cynomolgus monkeys; [7]): 2 out of 4 and Abdomen (2/4) | Clinical Observations (frequency): Low Food Consumption (cynomolgus monkeys; [7]): 2 out of the 4 and Consumption (2/4)
